In patent publication EP0548441A1, “Endothelin antagonists” (Japat Ltd, priority 1991, dated 1993):
Where a SMILES comes first, the peptide text is derived from it.

Experiments:
guinea pig trachea = assay: Inhibition of the contraction of guinea pig trachea; type: cell-based; details: guinea pig tracheal rings
Description: The contraction of the guinea pig trachea was measured according to Br. J. Pharmacol. 98, 483, l989, by the following procedure.
Male guinea pigs weighing 350 - 500 g were stunned and bled. The trachea was rapidly removed and placed in an oxygenated (95% O₂ , 5% CO₂) Krebs solution. After removal of the adherent fat and connective tissues, the trachea was cut into 2 mm wide rings. The two rings were tied together, end to end, placed in a 30 ml organ bath and connected to an isometric force-transducer under an initial tension of 1.0 g.

ETA receptor = biological target: T1, ETA receptor (Sus scrofa, UniProt Q29010)
T1 sequence (Q29010 21-427): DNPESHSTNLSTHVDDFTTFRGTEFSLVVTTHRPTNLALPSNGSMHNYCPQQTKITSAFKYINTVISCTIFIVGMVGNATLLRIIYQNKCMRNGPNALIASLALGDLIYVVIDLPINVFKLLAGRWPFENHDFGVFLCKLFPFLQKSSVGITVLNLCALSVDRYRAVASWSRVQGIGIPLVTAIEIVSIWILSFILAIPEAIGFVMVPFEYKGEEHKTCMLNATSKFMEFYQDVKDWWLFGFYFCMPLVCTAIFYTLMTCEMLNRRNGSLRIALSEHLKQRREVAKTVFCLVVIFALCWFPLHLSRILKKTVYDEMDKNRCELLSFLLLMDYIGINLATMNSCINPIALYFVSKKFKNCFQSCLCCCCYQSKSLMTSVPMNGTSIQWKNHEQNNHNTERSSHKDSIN
Description: Porcine lung was homogenized with a Kinematica Polytron homogenizer (Lucern, Switzerland) three times at top speed for each 30 sec in 9 volumes of ice-cold 0.25 M sucrose solution containing 20 mM Tris-HCl (pH 7.4), 0.2 mM phenylmethylsulfonyl fluoride, 1 µM leupeptin, 1 µM pepstatin, 0.1 mM EDTA, and 0.5 mM EGTA. After centrifugation of the homogenate at 1,000 x g for 10 min at 4°C, the supernatant was centrifuged again at 20,000 x g for 20 min. The resulting pellet was washed three times as described above and used as a membrane source. The membrane was stocked in aliquots at -80°C until use.
ET-3 in the absence and presence of various amounts of nonlabeled ligands in a total volume of 1 ml of 20 mM HEPES (pH 7), 145 mM NaCl, 5 mM KCl, 3 mM MgCl₂ , 1 mM EGTA, 1 mg/ml bovine serum albumin, and 0.2 mg/ml bacitracin. […] The radioactivity in membrane pellet was measured in a gamma counter. Nonspecific binding was defined as membrane-associated radioactivity in the presence of saturating concentrations of ET(l00 nM). […] Total binding was always less than l5% of the total radioactivity added.
The specific binding site for ETs in the plasma membrane of porcine lung was detected. The binding to the ETA receptor was determined with [¹²⁵I]ET-1 in the presence of 1 nM unlabeled ET-3 and the binding to the ETB receptor was determined with [¹²⁵I]ET-3 alone. […]

| Ki (ETA receptor) [nM] | Structure (SMILES) | inhibition of ET-3-induced contraction of the trachea (guinea pig trachea; 100 nM, added 5 min prior to the addition of ET-3) | contraction of the trachea (guinea pig trachea; organ bath, high KCl (60 mM) as reference standard) |
| --- | --- | --- | --- |
| 450 | CC[C@H](C)[C@H](NC(=O)[C@H](CC(=O)O)NC(=O)[C@H](CC(C)C)NC(=O)[C@H](Cc1c[nH]cn1)NC(=O)[C@H](C)NC(=O)[C@H](Cc1ccccc1)NC(=O)[C@H](Cc1ccc(O)cc1)NC(=O)[C@@H](NC(=O)[C@H](C)NC(=O)[C@H](CCC(=O)O)NC(=O)[C@H](CCCCN)NC(=O)[C@H](CC(=O)O)NC(C)=O)C(C)C)C(=O)N[C@H](C(=O)N[C@@H](Cc1c[nH]c2ccccc12)C(=O)O)[C@@H](C)CC [Compound (II)] (Ac-DKEAVYFAHLDIIW-OH) | significantly inhibited | – |
| – | CC[C@H](C)[C@H](NC(=O)[C@H](CC(=O)O)NC(=O)[C@H](CC(C)C)NC(=O)[C@H](Cc1c[nH]cn1)NC(=O)[C@@H]1CSSC[C@H](N)C(=O)N[C@@H]([C@@H](C)O)C(=O)N[C@H]2CSSC[C@H](NC(=O)[C@H](CCC(=O)O)NC(=O)[C@H](CCCCN)NC(=O)[C@H](CC(=O)O)NC(=O)[C@H](CCCCN)NC(=O)[C@H](Cc3ccc(O)cc3)NC(=O)[C@H]([C@@H](C)O)NC(=O)[C@H](Cc3ccccc3)NC2=O)C(=O)N[C@@H](C(C)C)C(=O)N[C@@H](Cc2ccc(O)cc2)C(=O)N[C@@H](Cc2ccc(O)cc2)C(=O)N1)C(=O)N[C@H](C(=O)N[C@@H](Cc1c[nH]c2ccccc12)C(=O)O)[C@@H](C)CC [ET-3, endothelin-3, reference compound] | – | caused a contraction of the trachea in a concentration dependent manner |
